The values that follow come from US8168795B2, “Selective sphingosine-1-phosphate receptor antagonists” (Allergan, Inc., priority 2009, dated 2012).

SMILES strings stand for the structures.

The target in the experiment is S1P3 receptor (Homo sapiens, UniProt Q99500). Kind of experiment: GTP γ35S binding assay, antagonist mode. Format: biochemical. Conditions: for IC50: antagonist assay, reaction mixture contained 10 nM S1P, membranes, read-out: S1P3 GTPγ^35S IC50. On the procedure:
B. Novel compounds were synthesized and tested for S1P3 activity using the GTP γ^35S binding assay. GTP γ^35S binding was measured in the medium containing (mM) HEPES 25, pH 7.4, MgCl2 10, NaCl 100, dithiothreitol 0.5, digitonin 0.003%, 0.2 nM GTP γ^35S, and 5 μg membrane protein in a volume of 150 μl. Test compounds were included in the concentration range from 0.08 to 5,000 nM unless indicated otherwise. Membranes were incubated with 100 μM 5′-adenylylimmidodiphosphate for 30 min, and subsequently with 10 μM GDP for 10 min on ice. Drug solutions and membrane were mixed, and then reactions were initiated by adding GTP γ^35S and continued for 30 min at 25° C. Reaction mixtures were filtered over Whatman GF/B filters under vacuum, and washed three times with 3 mL of ice-cold buffer (HEPES 25, pH7.4, MgCl2 10 and NaCl 100). Filters were dried and mixed with scintillant, and counted for ^35S activity using a β-counter. Agonist-induced GTP γ^35S binding was obtained by subtracting that in the absence of agonist. Binding data were analyzed using a non-linear regression method. In case of antagonist assay, the reaction mixture contained 10 nM S1P in the presence of test antagonist at concentrations ranging from 0.08 to 5000 nM.

Chain of S1P3 receptor (Q99500 whole entry): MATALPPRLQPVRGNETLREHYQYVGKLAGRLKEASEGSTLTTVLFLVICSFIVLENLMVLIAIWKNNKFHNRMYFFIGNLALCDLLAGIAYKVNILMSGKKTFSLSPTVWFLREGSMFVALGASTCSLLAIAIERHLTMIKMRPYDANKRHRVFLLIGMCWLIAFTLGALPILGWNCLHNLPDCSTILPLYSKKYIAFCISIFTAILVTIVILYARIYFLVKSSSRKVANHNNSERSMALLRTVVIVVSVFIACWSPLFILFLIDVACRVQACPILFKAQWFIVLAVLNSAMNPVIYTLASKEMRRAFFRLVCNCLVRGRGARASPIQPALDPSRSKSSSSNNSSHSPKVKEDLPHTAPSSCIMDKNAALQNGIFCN

With `CC1CCC(NC(NC(=O)c2ccc(Br)cc2)C(Cl)(Cl)Cl)CC1` (single isomer, unassigned) [Compound-49, 4-bromo-N-(2,2,2-trichloro-1-(4-methylcyclohexylamino)ethyl)benzamide], the IC50 is 671 nM.

In the case of `O=C(NC(Nc1ccc(Cl)cc1)C(F)(F)C(F)(F)F)c1ccc(Br)cn1` (single isomer, unassigned; (-)) [Compound-32, (−)-5-bromo-N-(1-(4-chlorophenylamino)-2,2,3,3,3-pentafluoropropyl)picolinamide], the IC50 was determined as 1.3 nM. The “activity of separated enantiomer” value (enantiomers of Compound-28 separated by chiral HPLC, assay not stated) is given as “active enantiomer”.

Consider `O=C(NC(Nc1ccc(Cl)cc1)C(=O)c1cccc2ccccc12)c1ccc(Br)cn1` (stereo not drawn) [Compound-1, 5-bromo-N-(1-(4-chlorophenylamino)-2-(naphthalen-1-yl)-2-oxoethyl)picolinamide], for which the IC50 is 10 nM. Consider `O=C(NC(Nc1ccc(Cl)cc1)C(=O)c1ccc2ccccc2c1)c1ccc(Br)cn1` (stereo not drawn) [Compound-2, 5-bromo-N-(1-(4-chlorophenylamino)-2-(naphthalen-2-yl)-2-oxoethyl)picolinamide], for which the IC50 came to 31 nM. Regarding `COc1cccc(C(=O)C(NC(=O)c2ccc(Br)cn2)Nc2ccc(Cl)cc2)c1` (stereo not drawn) [Compound-3, 5-bromo-N-(1-(4-chlorophenylamino)-2-(3-methoxyphenyl)-2-oxoethyl)picolinamide], the half-inhibitory concentration (IC50) was 5.2 nM. As for `O=C(NC(Nc1ccc(Cl)cc1)c1ccc(Cl)cc1)c1ccc(Br)cn1` (stereo not drawn) [Compound-7, 5-Bromo-N-((4-chlorophenyl)(4-chlorophenylamino)methyl)picolinamide], the IC50 came out at 115 nM. Regarding `O=C(NC(Nc1ccc(Cl)cc1)c1cc2ccccc2o1)c1ccc(Br)cn1` (stereo not drawn) [Compound-10, N-(benzofuran-2-yl(4-chlorophenylamino)methyl)-5-bromopicolinamide], the IC50 was found to be 4.7 nM. For `CCC(Cl)(Cl)C(NC(=O)c1ccc(Br)cn1)Nc1ccc(Cl)cc1` (stereo not drawn) [Compound-27, 5-Bromo-N-(2,2-dichloro-1-(4-chlorophenylamino)butyl)picolinamide], the concentration for half-maximal inhibition (IC50) is 56 nM. Turning to `O=C(NC(Nc1ccc(Cl)cc1)C(F)(F)C(F)(F)C(F)(F)C(F)(F)F)c1ccc(Br)cn1` (stereo not drawn) [Compound-29], the IC50 amounted to 5.5 nM. On the same count and under the same terms, to `O=C(NC(Nc1cnc(Cl)nc1)C(F)(F)C(F)(F)F)c1ccc(Br)cn1` (stereo not drawn) [Compound-35, 5-Bromo-N-(1-(2-chloropyrimidin-5-ylamino)-2,2,3,3,3-pentafluoropropyl)picolinamide] belongs 2 nM; to `O=C(NC(Nc1cnc(Cl)nc1)C(F)(F)C(F)(F)C(F)(F)C(F)(F)C(F)(F)C(F)F)c1ccc(Br)cn1` (stereo not drawn) [Compound-37, 5-Bromo-N-(1-(2-chloropyrimidin-5-ylamino)-2,2,3,3,4,4,5,5,6,6,7,7-dodecafluoroheptyl)picolinamide], 59 nM.

Broadly, the IC50 is the concentration that inhibits the measured activity by half.
